Test results: ChEMBL document CHEMBL1201862, “PubChem BioAssay data set” (2004)
Activity calls are given as the source filed them.

What was measured:
[1] = molecular target: Induced myeloid leukemia cell differentiation protein Mcl-1 (Homo sapiens, UniProt Q07820); type: functional
Coagulation factor XII = molecular target: T1, Coagulation factor XII (Homo sapiens, UniProt P00748); type: functional;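 further: activated factor XIIa alpha cleaving a fluorogenic AMC peptide substrate; inhibitor potency from loss of enzyme activity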
T1 sequence (P00748 whole entry): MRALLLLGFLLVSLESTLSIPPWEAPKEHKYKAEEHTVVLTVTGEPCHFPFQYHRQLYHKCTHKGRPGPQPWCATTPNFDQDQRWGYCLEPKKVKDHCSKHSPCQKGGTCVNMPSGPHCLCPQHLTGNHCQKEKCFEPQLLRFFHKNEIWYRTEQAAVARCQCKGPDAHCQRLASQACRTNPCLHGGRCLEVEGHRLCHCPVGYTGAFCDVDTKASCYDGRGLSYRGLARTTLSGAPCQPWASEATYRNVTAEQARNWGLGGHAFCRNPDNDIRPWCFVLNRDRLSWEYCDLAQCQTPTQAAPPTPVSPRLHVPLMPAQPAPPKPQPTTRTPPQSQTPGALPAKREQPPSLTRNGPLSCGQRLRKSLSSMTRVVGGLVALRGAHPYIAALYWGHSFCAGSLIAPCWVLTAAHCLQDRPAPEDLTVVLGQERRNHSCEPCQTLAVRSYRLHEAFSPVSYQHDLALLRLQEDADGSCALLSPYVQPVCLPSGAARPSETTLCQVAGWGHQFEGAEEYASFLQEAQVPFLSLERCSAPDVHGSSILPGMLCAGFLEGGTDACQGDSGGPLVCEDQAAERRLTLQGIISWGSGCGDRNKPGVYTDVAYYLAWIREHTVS

[2] = HeLa cell cytotoxicity, dose response, cytotoxicity control for MgcRacGAP inhibitor project (AID 624300); type: functional
[3] = molecular target: T2, Rac GTPase-activating protein 1 (Homo sapiens, UniProt Q9H0H5); experiment: MgcRacGAP GTPase-activating activity inhibitors, confirmation, biochemical, ADP Hunter fluorescence, primary and confirmatory (AID 624330); type: functional
T2 sequence (Q9H0H5 whole entry): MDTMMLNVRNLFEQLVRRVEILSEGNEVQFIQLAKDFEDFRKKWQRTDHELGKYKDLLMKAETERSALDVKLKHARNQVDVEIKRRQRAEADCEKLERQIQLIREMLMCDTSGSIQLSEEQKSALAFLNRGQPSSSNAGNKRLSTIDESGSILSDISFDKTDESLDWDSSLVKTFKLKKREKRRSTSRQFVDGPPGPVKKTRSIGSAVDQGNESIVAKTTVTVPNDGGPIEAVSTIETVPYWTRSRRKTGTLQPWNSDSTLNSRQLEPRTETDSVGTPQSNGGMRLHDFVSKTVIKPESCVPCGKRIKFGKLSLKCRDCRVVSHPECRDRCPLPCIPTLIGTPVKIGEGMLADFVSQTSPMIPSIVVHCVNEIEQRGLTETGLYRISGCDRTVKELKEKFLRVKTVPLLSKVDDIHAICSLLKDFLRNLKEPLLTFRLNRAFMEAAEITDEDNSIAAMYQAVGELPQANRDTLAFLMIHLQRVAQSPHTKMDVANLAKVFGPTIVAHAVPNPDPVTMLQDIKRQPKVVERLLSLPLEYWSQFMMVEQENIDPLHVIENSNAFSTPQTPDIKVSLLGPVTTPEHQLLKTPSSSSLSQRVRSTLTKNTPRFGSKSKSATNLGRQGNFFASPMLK

[4] = Luminescence Cell-Based Dose Confirmation HTS to Identify Activators of 5'UTR Stem-Loop Driven Alpha-Synuclein mRNA Translation in H4 Neuroglioblastoma Cells. [Related pubchem assays: 1829 (Project Summary), 1814 (Primary HTS)]; type: functional
[5] = Luminescence Cell-Based Dose Response HTS to Identify Activators of Luciferase Translation or Activity in H4 […] Cells. [Related pubchem assays: 1829 (Project Summary), 1814 (Primary HTS)]; type: functional
H4 = experiment: Luminescence Cell-Based Dose Response HTS to Identify Activators of 5'UTR Stem-Loop Driven Prion Protein mRNA Translation in H4 Neuroglioblastoma Cells. [Related pubchem assays: 1829 (Project Summary), 1814 (Primary HTS)]; type: functional; conditions: Homo sapiens
[6] = molecular target: DNA dC->dU-editing enzyme APOBEC-3A (Homo sapiens, UniProt P31941); experiment: Dose Response confirmation of small molecule APOBEC3A DNA Deaminase Inhibitors via a fluorescence-based single-stranded DNA deaminase assay. [Related pubchem assays (depositor defined):AID493011, AID493024]; type: functional
DNA dC->dU-editing enzyme APOBEC-3A, sequence (P31941 whole entry): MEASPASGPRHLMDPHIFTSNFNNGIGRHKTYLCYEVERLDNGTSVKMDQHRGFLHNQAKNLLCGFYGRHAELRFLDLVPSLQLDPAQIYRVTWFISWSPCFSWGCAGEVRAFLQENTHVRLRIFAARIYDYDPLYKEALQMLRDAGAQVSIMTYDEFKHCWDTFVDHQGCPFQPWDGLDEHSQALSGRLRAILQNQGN

[7] = molecular target: DNA dC->dU-editing enzyme APOBEC-3G (Homo sapiens, UniProt Q9HC16); type: functional;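 further: Dose-response counterscreen measuring inhibition of APOBEC3G DNA deaminase activity, run while confirming APOBEC3A inhibitors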
DNA dC->dU-editing enzyme APOBEC-3G, sequence (Q9HC16 whole entry): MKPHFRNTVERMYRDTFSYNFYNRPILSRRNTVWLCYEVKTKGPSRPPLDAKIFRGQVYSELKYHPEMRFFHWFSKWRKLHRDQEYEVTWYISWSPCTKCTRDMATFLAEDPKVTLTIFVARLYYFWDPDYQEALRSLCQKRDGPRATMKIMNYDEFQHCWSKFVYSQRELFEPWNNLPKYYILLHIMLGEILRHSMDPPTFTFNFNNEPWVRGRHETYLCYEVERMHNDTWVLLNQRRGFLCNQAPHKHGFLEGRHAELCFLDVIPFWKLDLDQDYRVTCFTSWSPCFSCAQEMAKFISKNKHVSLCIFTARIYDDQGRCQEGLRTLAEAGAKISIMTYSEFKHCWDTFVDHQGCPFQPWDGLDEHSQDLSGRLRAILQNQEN

[8] = molecular target: Glyceraldehyde-3-phosphate dehydrogenase (Homo sapiens, UniProt P04406)
[9] = molecular target: T3, Alkaline phosphatase, tissue-nonspecific isozyme (Homo sapiens, UniProt P05186); experiment: human TNAP enzyme inhibitors, SAR follow-up, biochemical, luminescent, dose response (AID 1056)
T3 sequence (P05186 whole entry): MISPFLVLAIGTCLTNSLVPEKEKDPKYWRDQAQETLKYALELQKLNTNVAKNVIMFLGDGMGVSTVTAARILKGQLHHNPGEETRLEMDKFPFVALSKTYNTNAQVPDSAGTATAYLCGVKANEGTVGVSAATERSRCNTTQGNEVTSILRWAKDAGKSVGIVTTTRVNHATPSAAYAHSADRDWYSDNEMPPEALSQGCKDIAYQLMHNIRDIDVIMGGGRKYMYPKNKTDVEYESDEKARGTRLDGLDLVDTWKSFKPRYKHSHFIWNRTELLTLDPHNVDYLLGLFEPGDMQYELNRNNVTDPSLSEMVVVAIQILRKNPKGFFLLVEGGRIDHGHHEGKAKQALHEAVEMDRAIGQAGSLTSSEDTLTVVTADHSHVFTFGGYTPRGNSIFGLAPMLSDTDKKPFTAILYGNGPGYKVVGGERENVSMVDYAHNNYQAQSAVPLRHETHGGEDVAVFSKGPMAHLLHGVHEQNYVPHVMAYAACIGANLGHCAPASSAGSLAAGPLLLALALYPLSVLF

[10] = molecular target: Kappa-type opioid receptor (Homo sapiens, UniProt P41145); experiment: SAR analysis of small molecule agonists of the kappa opioid receptor via a luminescent beta-arrestin assay - Set 3. [Related pubchem assays (depositor defined):AID1777, AID1785, AID1786, AID1966, AID2133, AID2136, AID2284, AID2500]; type: functional
[11] = molecular target: Peroxisome proliferator-activated receptor gamma/Nuclear receptor coactivator 1 (Homo sapiens, UniProt P37231); experiment: (§1) TR-FRET dose response biochemical High Throughput Screening assay for agonists of the steroid receptor coactivator 1 (SRC-1) recruitment by the peroxisome proliferator-activated receptor gamma (PPAR gamma): non-selective agonists. [Related pubchem assays (depositor defined):AID1300, AID1808, AID504735, AID631]; type: protein assay
Peroxisome proliferator-activated receptor gamma/Nuclear receptor coactivator 1, sequence (P37231 whole entry): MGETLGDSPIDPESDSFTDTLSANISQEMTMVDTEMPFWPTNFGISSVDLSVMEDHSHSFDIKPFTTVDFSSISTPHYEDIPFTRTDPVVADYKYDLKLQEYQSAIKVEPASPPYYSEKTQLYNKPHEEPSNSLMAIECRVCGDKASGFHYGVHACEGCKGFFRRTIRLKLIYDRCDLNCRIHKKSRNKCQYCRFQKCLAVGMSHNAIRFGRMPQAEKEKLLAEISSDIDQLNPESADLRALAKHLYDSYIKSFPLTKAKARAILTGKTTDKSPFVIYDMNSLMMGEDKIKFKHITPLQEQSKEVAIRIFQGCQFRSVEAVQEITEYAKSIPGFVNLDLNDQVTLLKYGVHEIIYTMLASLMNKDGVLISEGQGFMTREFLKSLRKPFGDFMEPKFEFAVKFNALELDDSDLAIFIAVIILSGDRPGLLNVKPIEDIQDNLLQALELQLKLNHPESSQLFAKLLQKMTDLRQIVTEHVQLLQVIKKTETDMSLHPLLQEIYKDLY
Peroxisome proliferator-activated receptor gamma/Nuclear receptor coactivator 1, sequence (Q15788 whole entry, further chain): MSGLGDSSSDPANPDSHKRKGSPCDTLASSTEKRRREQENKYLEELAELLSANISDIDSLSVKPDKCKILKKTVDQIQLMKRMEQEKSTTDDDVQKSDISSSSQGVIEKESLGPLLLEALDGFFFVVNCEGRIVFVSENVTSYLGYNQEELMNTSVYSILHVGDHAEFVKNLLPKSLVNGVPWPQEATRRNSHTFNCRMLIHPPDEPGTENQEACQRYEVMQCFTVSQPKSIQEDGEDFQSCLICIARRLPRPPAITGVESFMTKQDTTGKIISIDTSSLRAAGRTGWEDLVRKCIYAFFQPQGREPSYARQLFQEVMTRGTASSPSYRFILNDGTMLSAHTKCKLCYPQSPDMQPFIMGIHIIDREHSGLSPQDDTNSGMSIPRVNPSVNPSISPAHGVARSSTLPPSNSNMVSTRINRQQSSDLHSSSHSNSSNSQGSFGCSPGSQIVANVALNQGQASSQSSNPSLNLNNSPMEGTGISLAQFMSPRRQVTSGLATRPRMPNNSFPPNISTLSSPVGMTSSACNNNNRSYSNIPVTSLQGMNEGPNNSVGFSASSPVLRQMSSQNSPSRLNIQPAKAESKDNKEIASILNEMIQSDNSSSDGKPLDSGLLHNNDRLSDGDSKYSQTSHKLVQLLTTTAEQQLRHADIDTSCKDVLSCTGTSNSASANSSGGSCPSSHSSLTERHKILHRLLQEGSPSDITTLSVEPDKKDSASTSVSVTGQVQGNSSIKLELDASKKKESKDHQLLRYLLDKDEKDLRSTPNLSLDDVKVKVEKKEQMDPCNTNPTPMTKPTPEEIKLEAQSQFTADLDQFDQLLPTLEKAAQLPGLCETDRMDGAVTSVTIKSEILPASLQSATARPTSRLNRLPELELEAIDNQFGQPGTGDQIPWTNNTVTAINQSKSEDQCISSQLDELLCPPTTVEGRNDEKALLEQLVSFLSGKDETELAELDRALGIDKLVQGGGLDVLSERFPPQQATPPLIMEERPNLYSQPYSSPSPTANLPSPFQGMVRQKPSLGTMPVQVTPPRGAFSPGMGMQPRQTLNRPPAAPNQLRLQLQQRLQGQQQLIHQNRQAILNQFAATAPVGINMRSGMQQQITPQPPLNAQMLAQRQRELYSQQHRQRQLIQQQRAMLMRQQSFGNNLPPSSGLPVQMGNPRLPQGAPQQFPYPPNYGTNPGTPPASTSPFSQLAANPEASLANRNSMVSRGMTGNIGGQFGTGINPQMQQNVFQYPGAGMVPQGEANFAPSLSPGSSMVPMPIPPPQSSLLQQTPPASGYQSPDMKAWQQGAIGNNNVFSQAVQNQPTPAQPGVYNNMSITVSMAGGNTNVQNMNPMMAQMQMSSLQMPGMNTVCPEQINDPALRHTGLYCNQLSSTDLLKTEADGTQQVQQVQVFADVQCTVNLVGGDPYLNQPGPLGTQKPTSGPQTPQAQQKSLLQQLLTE

[12] = molecular target: Peroxisome proliferator-activated receptor gamma/Nuclear receptor coactivator 3 (Homo sapiens, UniProt P37231); experiment: as §1, with “3 (SRC-3)” for “1 (SRC-1)”, “assays: 1301 (Confirmation screen.), 1048 (Primary screen.)]” for “assays (depositor defined):AID1300, AID1808, AID504735, AID631]”; type: functional
[13] = molecular target: Peroxisome proliferator-activated receptor gamma/Nuclear receptor coactivator 2 (Homo sapiens, UniProt P37231); experiment: TR-FRET dose response biochemical High Throughput Screening assay for agonists of the steroid receptor coactivator 2 (SRC-2) recruitment by the peroxisome proliferator-activated receptor gamma (PPAR gamma): non-selective agonists. [Related pubchem assays: 1297, 1032 ]; type: functional
Peroxisome proliferator-activated receptor gamma/Nuclear receptor coactivator 2, sequence (P37231 whole entry): as the sequence (P37231 whole entry) above
Peroxisome proliferator-activated receptor gamma/Nuclear receptor coactivator 2, sequence (Q15596 whole entry, further chain): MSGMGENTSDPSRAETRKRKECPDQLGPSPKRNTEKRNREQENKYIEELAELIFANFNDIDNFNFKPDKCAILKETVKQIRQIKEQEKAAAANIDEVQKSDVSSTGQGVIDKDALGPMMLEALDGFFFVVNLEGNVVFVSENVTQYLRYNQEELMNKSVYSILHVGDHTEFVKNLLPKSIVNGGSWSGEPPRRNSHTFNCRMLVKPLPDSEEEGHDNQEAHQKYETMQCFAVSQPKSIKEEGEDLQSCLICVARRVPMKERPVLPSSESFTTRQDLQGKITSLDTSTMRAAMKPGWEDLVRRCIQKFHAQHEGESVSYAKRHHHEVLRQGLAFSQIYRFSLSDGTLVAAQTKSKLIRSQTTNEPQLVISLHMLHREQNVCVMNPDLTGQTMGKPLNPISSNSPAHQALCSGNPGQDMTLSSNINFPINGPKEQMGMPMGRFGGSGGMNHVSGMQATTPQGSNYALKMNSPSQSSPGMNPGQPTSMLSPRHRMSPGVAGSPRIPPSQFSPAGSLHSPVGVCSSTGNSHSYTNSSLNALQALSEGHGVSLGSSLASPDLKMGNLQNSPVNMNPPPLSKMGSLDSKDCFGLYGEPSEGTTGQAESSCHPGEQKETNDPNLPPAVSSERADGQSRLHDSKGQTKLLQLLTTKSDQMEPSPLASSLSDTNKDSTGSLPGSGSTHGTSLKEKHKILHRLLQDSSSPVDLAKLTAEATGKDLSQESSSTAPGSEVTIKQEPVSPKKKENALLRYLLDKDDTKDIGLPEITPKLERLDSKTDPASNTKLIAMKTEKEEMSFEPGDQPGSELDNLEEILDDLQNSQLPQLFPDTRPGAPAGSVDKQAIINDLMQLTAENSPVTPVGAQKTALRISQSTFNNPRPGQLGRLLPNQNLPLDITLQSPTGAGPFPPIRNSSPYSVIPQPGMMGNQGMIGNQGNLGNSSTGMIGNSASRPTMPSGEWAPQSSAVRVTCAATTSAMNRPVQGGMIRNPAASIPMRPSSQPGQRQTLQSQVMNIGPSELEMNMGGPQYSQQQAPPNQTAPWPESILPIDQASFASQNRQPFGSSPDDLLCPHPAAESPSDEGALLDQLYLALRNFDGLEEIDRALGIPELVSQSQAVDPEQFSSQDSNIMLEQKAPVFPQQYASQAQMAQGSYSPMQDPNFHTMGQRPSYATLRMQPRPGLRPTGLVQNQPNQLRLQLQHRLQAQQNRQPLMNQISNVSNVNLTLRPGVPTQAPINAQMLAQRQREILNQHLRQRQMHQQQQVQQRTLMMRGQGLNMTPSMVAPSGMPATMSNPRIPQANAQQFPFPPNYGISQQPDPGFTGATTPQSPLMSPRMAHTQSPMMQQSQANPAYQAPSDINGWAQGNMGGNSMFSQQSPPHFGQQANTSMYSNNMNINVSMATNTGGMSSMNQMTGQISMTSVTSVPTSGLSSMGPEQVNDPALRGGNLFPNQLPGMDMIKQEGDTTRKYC

Induced myeloid leukemia cell differentiation protein Mcl-1, sequence (Q07820 whole entry): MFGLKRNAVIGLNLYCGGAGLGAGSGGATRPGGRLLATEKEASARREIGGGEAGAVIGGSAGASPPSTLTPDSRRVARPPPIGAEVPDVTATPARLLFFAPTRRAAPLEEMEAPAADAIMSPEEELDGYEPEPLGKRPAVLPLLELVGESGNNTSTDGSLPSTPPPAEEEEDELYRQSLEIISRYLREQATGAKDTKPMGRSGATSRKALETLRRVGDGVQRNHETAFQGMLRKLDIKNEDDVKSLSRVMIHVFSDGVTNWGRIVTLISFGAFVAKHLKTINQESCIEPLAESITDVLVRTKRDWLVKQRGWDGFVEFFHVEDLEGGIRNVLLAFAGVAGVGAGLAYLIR

O=C1NC(=S)N(C2CC2)C(=O)/C1=C/c1ccc2c(c1)CCN2CCCCl
IC50 [1]: 2.61 µM (active)
IC50 (Coagulation factor XII): > 50 µM (inactive)
CC50 [2]: 85.4 µM (active)
IC50 [3]: 95.6 µM (active)

CC(C)(C)C(=O)c1cn(CC(=O)NCc2ccco2)c2ccccc12
EC50 [4]: 14.9 µM (active)
EC50 [5]: 15.9 µM (active)
EC50 (H4): 13.2 µM (active)
IC50 [6]: 3.56 µM (active)
IC50 [7]: 4.75 µM (active)

O=C1c2c(Cl)c(Cl)c(Cl)c(Cl)c2C(=O)N1c1nc(Cc2ccccc2)n[nH]1
IC50 [8]: > 100 µM (not active)
IC50 [9]: > 100 µM (inactive)

O=C(c1ccccn1)N(Cc1cc2cc(Cl)ccc2[nH]c1=O)CC1CC1
EC50 [10]: > 20 µM (inactive)

COC(=O)CNc1nnc(S)nc1O
EC50 [11]: 1.61 µM (active)
EC50 [12]: 53.6 µM (not active)
EC50 [13]: 2.15 µM (active)
